Type in all cases: functional, cell-based
The test system of one experiment is SW480. Put plainly: Cytotoxicity against human SW480 cells after 48 hrs by MTT assay. The conditions noted are these: SW480, 48 h. In general terms: Formazan colour is commonly taken as a measure of viable cells.
For a further experiment, the system named is SMMC-7721. Kind of experiment: Cytotoxicity against human SMMC7721 cells after 48 hrs by MTT assay. The conditions noted are these: SMMC-7721, 48 h.
A further experiment concerns MCF7. Kind of experiment: Cytotoxicity against human MCF7 cells after 48 hrs by MTT assay. The conditions noted are these: MCF7, 48 h.
The test system of another experiment is HL-60. Kind of experiment: Cytotoxicity against human HL60 cells after 48 hrs by MTT assay. The conditions noted are these: HL-60, 48 h.
In a further experiment the test system is A549. Put plainly: Cytotoxicity against human A549 cells after 48 hrs by MTT assay. The conditions noted are these: A549, 48 h.

In ChEMBL document CHEMBL2429764, “Synthesis and cytotoxic activity of novel hybrid compounds between 2-alkylbenzofuran and imidazole” (Med Chem Res, 2013) one finds IC50 data, which are given here for 34 compounds.

As a reminder, the IC50 is the point on the concentration scale where inhibition reaches its midpoint. Lower therefore signals greater potency in that assay.

With `Cc1n(Cc2cc3ccccc3o2)cc[n+]1CC(=O)c1ccc(O)cc1`, the IC50 with SW480, with SMMC-7721, in the experiment with MCF7, with HL-60 and in the experiment with A549 was greater than 40 µM throughout.
For the compound `Cc1n(Cc2cc3ccccc3o2)cc[n+]1CC(=O)c1ccc(Br)cc1`, the IC50 with SW480, in the experiment with SMMC-7721, with MCF7, in the experiment with HL-60 and with A549 was greater than 40 µM each time.
Turning to `Cc1n(Cc2cc3ccccc3o2)cc[n+]1CC(=O)c1ccc2ccccc2c1`, the IC50 worked out at 1.03 µM in the experiment with SW480; 3.5 µM in the experiment with SMMC-7721; 1.09 µM with MCF7; 1.04 µM with HL-60; 4.97 µM with A549.
The corresponding values for `Cc1n(Cc2cc3ccccc3o2)cc[n+]1C(C(=O)c1ccccc1)c1ccccc1` (stereo not given) are 9.96 µM, 11.3 µM, 6.79 µM, 4.44 µM and 14.8 µM.
Consider `Cc1n(Cc2cc3ccccc3o2)cc[n+]1Cc1ccccc1Br`, for which the IC50 with SW480 worked out at 3.89 µM; in the experiment with SMMC-7721, 10.2 µM; with MCF7, 2.24 µM; in the experiment on HL-60 it was 1.28 µM; in the experiment on A549, 2.96 µM.
Taken in the same sequence, the figures for `C=CC[n+]1ccn(Cc2cc3ccccc3o2)c1C` were greater than 40 µM, greater than 40 µM, greater than 40 µM, greater than 40 µM and greater than 40 µM.
Taken in the same sequence, the figures for `CCc1n(Cc2cc3ccccc3o2)cc[n+]1CC(=O)c1ccccc1` were greater than 40 µM, greater than 40 µM, greater than 40 µM, greater than 40 µM and greater than 40 µM.
As for `CCc1n(Cc2cc3ccccc3o2)cc[n+]1CC(=O)c1ccc(OC)cc1`, the IC50 in the experiment with SW480 turned out to be 1.02 µM; in the experiment with SMMC-7721 it was 8.43 µM; in the experiment on MCF7, 3.05 µM; with HL-60 it was 0.4 µM; with A549, 1.13 µM.
As for `CCc1n(Cc2cc3ccccc3o2)cc[n+]1CC(=O)c1ccc(O)cc1`, the IC50 in the experiment with SW480, with SMMC-7721, in the experiment with MCF7, with HL-60 and in the experiment with A549 was greater than 40 µM in each case.
For `CCc1n(Cc2cc3ccccc3o2)cc[n+]1CC(=O)c1ccc(Br)cc1`, the IC50 in the experiment with SW480 was 1.34 µM; in the experiment with SMMC-7721 it was 7.51 µM; in the experiment with MCF7, 4.47 µM; in the experiment on HL-60, 1.87 µM; in the experiment with A549, 25.7 µM.
The corresponding values for `CCc1n(Cc2cc3ccccc3o2)cc[n+]1CC(=O)c1ccc2ccccc2c1` are 1.69 µM, 4.26 µM, 2.59 µM, 1.45 µM and 7.44 µM.
Consider `CCc1n(Cc2cc3ccccc3o2)cc[n+]1C(C(=O)c1ccccc1)c1ccccc1` (stereo not given), for which the IC50 with SW480 amounted to 7.15 µM; with SMMC-7721 it was 6.16 µM; with MCF7, 3.3 µM; with HL-60 it was 2.25 µM; in the experiment with A549, 10.3 µM.
The corresponding values for `O=C(C[n+]1ccn(Cc2cc3ccccc3o2)c1)c1ccccc1` are greater than 40 µM, greater than 40 µM, greater than 40 µM, greater than 40 µM and greater than 40 µM.
The corresponding values for `COc1ccc(C(=O)C[n+]2ccn(Cc3cc4ccccc4o3)c2)cc1` are greater than 40 µM, greater than 40 µM, greater than 40 µM, greater than 40 µM and greater than 40 µM.
The corresponding values for `O=C(C[n+]1ccn(Cc2cc3ccccc3o2)c1)c1ccc(O)cc1` are greater than 40 µM, greater than 40 µM, greater than 40 µM, greater than 40 µM and greater than 40 µM.
In the case of `O=C(C[n+]1ccn(Cc2cc3ccccc3o2)c1)c1ccc(Br)cc1`, the IC50 was greater than 40 µM in the experiment on SW480; 14.3 µM in the experiment on SMMC-7721; 18 µM with MCF7; 10.3 µM in the experiment with HL-60; 12.2 µM with A549.
The corresponding values for `O=C(C[n+]1ccn(Cc2cc3ccccc3o2)c1)c1ccc2ccccc2c1` are 17.1 µM, 8.08 µM, 12.7 µM, 6.27 µM and 9.95 µM.
On to `Brc1ccccc1C[n+]1ccn(Cc2cc3ccccc3o2)c1`, for which the IC50 in the experiment with SW480, with SMMC-7721, with MCF7, in the experiment with HL-60 and with A549 was greater than 40 µM throughout.
Take `C=CC[n+]1ccn(Cc2cc3ccccc3o2)c1`: the IC50 with SW480, in the experiment on SMMC-7721, in the experiment on MCF7, in the experiment on HL-60 and in the experiment on A549 was greater than 40 µM each time.
Regarding `CCCC[n+]1ccn(Cc2cc3ccccc3o2)c1`, the IC50 with SW480, in the experiment on SMMC-7721, in the experiment on MCF7, in the experiment with HL-60 and in the experiment with A549 was greater than 40 µM throughout.
For the compound `O=C(C[n+]1cn(Cc2cc3ccccc3o2)c2ccccc21)c1ccccc1`, the IC50 in the experiment on SW480, in the experiment with SMMC-7721, in the experiment on MCF7, with HL-60 and with A549 was greater than 40 µM throughout.
In the case of `COc1ccc(C(=O)C[n+]2cn(Cc3cc4ccccc4o3)c3ccccc32)cc1`, the IC50 with SW480 amounted to 23.1 µM; in the experiment with SMMC-7721, 13.6 µM; in the experiment on MCF7, 14.6 µM; with HL-60, 3.91 µM; with A549, 7.18 µM.
Taken in the same sequence, the figures for `O=C(C[n+]1cn(Cc2cc3ccccc3o2)c2ccccc21)c1ccc(O)cc1` were greater than 40 µM, greater than 40 µM, greater than 40 µM, greater than 40 µM and greater than 40 µM.
Regarding `O=C(C[n+]1cn(Cc2cc3ccccc3o2)c2ccccc21)c1ccc(Br)cc1`, the IC50 stood at 4.2 µM with SW480; 3.58 µM with SMMC-7721; 2.46 µM in the experiment with MCF7; 1.69 µM in the experiment on HL-60; 2.54 µM in the experiment with A549.
The corresponding values for `O=C(C[n+]1cn(Cc2cc3ccccc3o2)c2ccccc21)c1ccc2ccccc2c1` are 17.1 µM, 6.44 µM, 3.72 µM, 3.62 µM and 6.73 µM.
The corresponding values for `O=C(c1ccccc1)C(c1ccccc1)[n+]1cn(Cc2cc3ccccc3o2)c2ccccc21` (stereo not given) are 9.75 µM, 14.8 µM, 9.83 µM, 6.77 µM and 12.6 µM.
The corresponding values for `Brc1ccccc1C[n+]1cn(Cc2cc3ccccc3o2)c2ccccc21` are 14.7 µM, 6.83 µM, 7.48 µM, 2.48 µM and 2.63 µM.
Turning to `CCCC[n+]1cn(Cc2cc3ccccc3o2)c2ccccc21`, the IC50 in the experiment with SW480, with SMMC-7721, with MCF7, with HL-60 and with A549 was greater than 40 µM throughout.
Consider `Cc1n(Cc2cc3ccccc3o2)cc[n+]1CC(=O)c1ccccc1`, for which the IC50 in the experiment on SW480, in the experiment with SMMC-7721, in the experiment on MCF7, in the experiment on HL-60 and in the experiment with A549 was greater than 40 µM throughout.
For the compound `COc1ccc(C(=O)C[n+]2ccn(Cc3cc4ccccc4o3)c2C)cc1`, the IC50 in the experiment with SW480 was found to be 0.28 µM; with SMMC-7721, 11.6 µM; in the experiment on MCF7 it was 1.44 µM; in the experiment with HL-60 it was 0.78 µM; with A549 it was 0.37 µM.
Taken in the same sequence, the figures for `c1ccc2oc(Cn3ccnc3)cc2c1` were greater than 40 µM, greater than 40 µM, greater than 40 µM, greater than 40 µM and greater than 40 µM.
Turning to `c1ccc2oc(Cn3cnc4ccccc43)cc2c1`, the IC50 in the experiment on SW480, in the experiment on SMMC-7721, in the experiment with MCF7, with HL-60 and in the experiment with A549 was greater than 40 µM each time.
For `Cc1nccn1Cc1cc2ccccc2o1`, the IC50 in the experiment on SW480, in the experiment on SMMC-7721, in the experiment with MCF7, with HL-60 and in the experiment with A549 was greater than 40 µM throughout.
As to `CCc1nccn1Cc1cc2ccccc2o1`, the IC50 in the experiment with SW480, in the experiment with SMMC-7721, in the experiment on MCF7, in the experiment with HL-60 and in the experiment with A549 was greater than 40 µM throughout.
